Read-outs that look alike come from different tables or passages of the source. No end group written: not given here.

Data set [1] in a line: stabilizing effect of other amino acids upon thymopentin in aqueous formulation. The protocol:
To the peptide solution is added a sufficient amount of glycine to stabilize the solution.

Data set [2] can be described thus: human clinical research, clinical pharmacological result. The format is in vivo. The following applies: patients. The procedure: (§1) In experiments with thymopentin, it was observed that the optimal doses of thymopentin in an injectable aqueous formulation for immunostimulation in laboratory animals was about 1 μg/kg of body weight. For laboratory use, these dosages were prepared immediately prior to use.

The nature of data set [3]: immunostimulation in laboratory animals, injectable aqueous formulation. The data set is classed as in vivo. The following applies: injectable aqueous formulation prepared immediately prior to use. The procedure:
as §1

For `C[C@H](N)C(=O)O` [alanine], the “stabilizing effect upon thymopentin” value in data set [1] is given as “do not exert the stabilizing effect”. Take `N=C(N)NCCC[C@H](N)C(=O)O` [arginine]: the “stabilizing effect upon thymopentin” value in data set [1] is listed as “do not exert the stabilizing effect”. Consider `N[C@@H](CC(=O)O)C(=O)O` [aspartic acid], for which the “stabilizing effect upon thymopentin” value in data set [1] is on record as “do not exert the stabilizing effect”. Consider `N[C@@H](CCC(=O)O)C(=O)O` [glutamic acid], for which the “stabilizing effect upon thymopentin” value in data set [1] (amino acid in place of glycine) was “do not exert the stabilizing effect”. Regarding `N[C@@H](Cc1c[nH]cn1)C(=O)O` [histidine], the “stabilizing effect upon thymopentin” value in data set [1] was “do not exert the stabilizing effect”. As for `NCCCC[C@H](N)C(=O)O` [lysine], the “stabilizing effect upon thymopentin” value in data set [1] is recorded as “do not exert the stabilizing effect”. Consider `O=C(O)[C@@H]1CCCN1` [proline], for which the “stabilizing effect upon thymopentin” value in data set [1] is on record as “do not exert the stabilizing effect”. On to `N[C@@H](Cc1c[nH]c2ccccc12)C(=O)O` [tryptophan], for which, in data set [1], the “stabilizing effect upon thymopentin” value was “do not exert the stabilizing effect”. As to `N[C@@H](Cc1ccc(O)cc1)C(=O)O` [tyrosine], the “stabilizing effect upon thymopentin” value in data set [1] is given as “do not exert the stabilizing effect”. On to RKDVY [thymopentin], for which, in data set [2], the “dose required to produce a clinical pharmacological result” value is no less than 1 mg/kg body weight. Also, in data set [3], the “optimal dose for immunostimulation” value was “about 1 μg/kg of body weight”.

(Values after US5140010A, “Stabilized aqueous formulations of thymopentin” (Immunobiology Research Institute, priority 1991, dated 1992).)
